# Reference: the OligoGym collection
# Several values for one entry are separate records, joined by “and”; a condition that tells them apart may be missing. Identical values can stand only once. HELM strings list units from the 5' end as sugar, base in round brackets, then linkage (d deoxyribose, r ribose, m 2'-O-methyl, p phosphodiester). Methylation of C is not given here. [moe] = 2'-O-(2-methoxyethyl) (MOE); [cEt] = constrained ethyl (cEt); [sp] = phosphorothioate linkage
# Biological target: HBV
# Details: ASO
Substance,"target mRNA inhibition (HepG2, 0.07 µM)",further results
RNA1{[moe](A)[sp].[moe](G)[sp].[moe](T)[sp].[moe](T)[sp].d(C)[sp].d(C)[sp].d(G)[sp].d(C)[sp].d(A)[sp].d(G)[sp].d(T)[sp].d(A)[sp].d(T)[sp].[moe](G)[sp].[moe](G)[sp].[moe](A)}$$$$V2.0,60% and 39%,–
RNA1{[moe](A)[sp].[moe](G)[sp].[moe](T)[sp].d(T)[sp].d(C)[sp].d(C)[sp].d(G)[sp].d(C)[sp].d(A)[sp].d(G)[sp].d(T)[sp].d(A)[sp].d(T)[sp].[cEt](G)[sp].[cEt](G)[sp].[cEt](A)}$$$$V2.0,58% and 69%,–
RNA1{[moe](A)[sp].[moe](G)[sp].d(A)[sp].d(A)[sp].d(G)[sp].d(T)[sp].d(C)[sp].d(C)[sp].d(A)[sp].d(C)[sp].d(C)[sp].[moe](A)[sp].[moe](C)[sp].[moe](G)[sp].[moe](A)[sp].[moe](G)[sp].[moe](T)}$$$$V2.0,62% and 49%,–
RNA1{[moe](A)[sp].[moe](T)[sp].[moe](G)[sp].[moe](A)[sp].[moe](G)[sp].[moe](G)[sp].d(C)[sp].d(A)[sp].d(T)[sp].d(A)[sp].d(G)[sp].d(C)[sp].d(A)[sp].d(G)[sp].d(C)[sp].[moe](A)[sp].[moe](G)}$$$$V2.0,55% and 51%,–
RNA1{[moe](A)[sp].[moe](T)[sp].[moe](G)[sp].d(A)[sp].d(G)[sp].d(G)[sp].d(C)[sp].d(A)[sp].d(T)[sp].d(A)[sp].d(G)[sp].d(C)[sp].[moe](A)[sp].[moe](G)[sp].[moe](C)[sp].[moe](A)[sp].[moe](G)}$$$$V2.0,66% and 51%,–
RNA1{[moe](A)[sp].[moe](T)[sp].[moe](T)[sp].[moe](T)[sp].[moe](A)[sp].d(T)[sp].d(G)[sp].d(C)[sp].d(C)[sp].d(T)[sp].d(A)[sp].d(C)[sp].d(A)[sp].d(G)[sp].[moe](C)[sp].[moe](C)[sp].[moe](T)}$$$$V2.0,70% and 48%,–
RNA1{[moe](A)[sp].[moe](T)[sp].[moe](T)[sp].d(T)[sp].d(A)[sp].d(T)[sp].d(G)[sp].d(C)[sp].d(C)[sp].d(T)[sp].d(A)[sp].d(C)[sp].[moe](A)[sp].[moe](G)[sp].[moe](C)[sp].[moe](C)[sp].[moe](T)}$$$$V2.0,58% and 50%,–
RNA1{[moe](C)[sp].[cEt](A)[sp].[cEt](A)[sp].d(A)[sp].d(T)[sp].d(G)[sp].d(G)[sp].d(C)[sp].d(A)[sp].d(C)[sp].d(T)[sp].d(A)[sp].d(G)[sp].[cEt](T)[sp].[cEt](A)[sp].[moe](A)}$$$$V2.0,55% and 64%,–
RNA1{[moe](C)[sp].[cEt](A)[sp].d(C)[sp].d(T)[sp].d(G)[sp].d(A)[sp].d(A)[sp].d(C)[sp].d(A)[sp].d(A)[sp].d(A)[sp].d(T)[sp].[cEt](G)[sp].[moe](G)[sp].[cEt](C)[sp].[moe](A)}$$$$V2.0,–,"target mRNA inhibition (HepG2, 0.0092593 µM): 5%; target mRNA inhibition (HepG2, 0.0277778 µM): 26%; target mRNA inhibition (HepG2, 0.0833333 µM): 64%; target mRNA inhibition (HepG2, 0.25 µM): 82%"
RNA1{[moe](C)[sp].[cEt](C)[sp].[cEt](A)[sp].d(A)[sp].d(G)[sp].d(G)[sp].d(C)[sp].d(A)[sp].d(C)[sp].d(A)[sp].d(G)[sp].d(C)[sp].d(T)[sp].[cEt](T)[sp].[cEt](G)[sp].[moe](G)}$$$$V2.0,1% and 0%,–
RNA1{[moe](C)[sp].[cEt](C)[sp].[cEt](A)[sp].d(A)[sp].d(T)[sp].d(T)[sp].d(T)[sp].d(A)[sp].d(T)[sp].d(G)[sp].d(C)[sp].d(C)[sp].d(T)[sp].[cEt](A)[sp].[cEt](C)[sp].[moe](A)}$$$$V2.0,42% and 18%,–
RNA1{[moe](C)[sp].[cEt](C)[sp].[cEt](A)[sp].d(C)[sp].d(G)[sp].d(A)[sp].d(G)[sp].d(T)[sp].d(C)[sp].d(T)[sp].d(A)[sp].d(G)[sp].d(A)[sp].[cEt](C)[sp].[cEt](T)[sp].[moe](C)}$$$$V2.0,0%,–
RNA1{[moe](C)[sp].[cEt](C)[sp].[cEt](A)[sp].d(C)[sp].d(T)[sp].d(G)[sp].d(A)[sp].d(A)[sp].d(C)[sp].d(A)[sp].d(A)[sp].d(A)[sp].d(T)[sp].[cEt](G)[sp].[cEt](G)[sp].[moe](C)}$$$$V2.0,78% and 84%,"target mRNA inhibition (HepG2, 0.0092593 µM): 11%; target mRNA inhibition (HepG2, 0.0277778 µM): 28%; target mRNA inhibition (HepG2, 0.0833333 µM): 68%; target mRNA inhibition (HepG2, 0.25 µM): 89%"
RNA1{[moe](C)[sp].[cEt](G)[sp].[cEt](A)[sp].d(A)[sp].d(C)[sp].d(C)[sp].d(A)[sp].d(C)[sp].d(T)[sp].d(G)[sp].d(A)[sp].d(A)[sp].d(C)[sp].[cEt](A)[sp].[cEt](A)[sp].[moe](A)}$$$$V2.0,64% and 48%,–
RNA1{[moe](C)[sp].[cEt](G)[sp].[cEt](C)[sp].d(A)[sp].d(G)[sp].d(T)[sp].d(A)[sp].d(T)[sp].d(G)[sp].d(G)[sp].d(A)[sp].d(T)[sp].d(C)[sp].[cEt](G)[sp].[cEt](G)[sp].[moe](C)}$$$$V2.0,81% and 78%,–
RNA1{[moe](C)[sp].[cEt](G)[sp].d(G)[sp].d(G)[sp].d(C)[sp].d(A)[sp].d(A)[sp].d(C)[sp].d(A)[sp].d(T)[sp].d(A)[sp].d(C)[sp].[cEt](C)[sp].[moe](T)[sp].[cEt](T)[sp].[moe](G)}$$$$V2.0,72% and 65%,–

Substance,"target mRNA inhibition (HepG2, 0.07 µM)",further results
RNA1{[moe](C)[sp].[cEt](T)[sp].[cEt](G)[sp].d(A)[sp].d(A)[sp].d(C)[sp].d(A)[sp].d(A)[sp].d(A)[sp].d(T)[sp].d(G)[sp].d(G)[sp].d(C)[sp].[cEt](A)[sp].[cEt](C)[sp].[moe](T)}$$$$V2.0,69% and 58%,–
RNA1{[moe](C)[sp].[cEt](T)[sp].d(A)[sp].d(G)[sp].d(T)[sp].d(A)[sp].d(A)[sp].d(A)[sp].d(C)[sp].d(T)[sp].d(G)[sp].d(A)[sp].[cEt](G)[sp].[moe](C)[sp].[cEt](C)[sp].[moe](A)}$$$$V2.0,74% and 76%,–
RNA1{[moe](C)[sp].[moe](A)[sp].[moe](A)[sp].d(T)[sp].d(T)[sp].d(T)[sp].d(A)[sp].d(T)[sp].d(G)[sp].d(C)[sp].d(C)[sp].d(T)[sp].d(A)[sp].[cEt](C)[sp].[cEt](A)[sp].[cEt](G)}$$$$V2.0,30% and 20%,–
RNA1{[moe](C)[sp].[moe](A)[sp].[moe](C)[sp].[moe](T)[sp].[moe](A)[sp].d(G)[sp].d(T)[sp].d(A)[sp].d(A)[sp].d(A)[sp].d(C)[sp].d(T)[sp].d(G)[sp].d(A)[sp].[moe](G)[sp].[moe](C)}$$$$V2.0,59% and 60%,–
RNA1{[moe](C)[sp].[moe](A)[sp].[moe](C)[sp].d(T)[sp].d(A)[sp].d(G)[sp].d(T)[sp].d(A)[sp].d(A)[sp].d(A)[sp].d(C)[sp].d(T)[sp].[moe](G)[sp].[moe](A)[sp].[moe](G)[sp].[moe](C)}$$$$V2.0,14% and 4%,–
RNA1{[moe](C)[sp].[moe](A)[sp].[moe](G)[sp].d(A)[sp].d(G)[sp].d(G)[sp].d(T)[sp].d(G)[sp].d(A)[sp].d(A)[sp].d(G)[sp].d(C)[sp].[moe](G)[sp].[moe](A)[sp].[moe](A)[sp].[moe](G)[sp].[moe](T)}$$$$V2.0,63% and 50%,–
RNA1{[moe](C)[sp].[moe](C)[sp].[moe](A)[sp].[moe](A)[sp].[moe](T)[sp].[moe](T)[sp].d(T)[sp].d(A)[sp].d(T)[sp].d(G)[sp].d(C)[sp].d(C)[sp].d(T)[sp].d(A)[sp].d(C)[sp].[moe](A)[sp].[moe](G)}$$$$V2.0,13% and 20%,–
RNA1{[moe](C)[sp].[moe](C)[sp].[moe](A)[sp].[moe](A)[sp].d(T)[sp].d(T)[sp].d(T)[sp].d(A)[sp].d(T)[sp].d(G)[sp].d(C)[sp].d(C)[sp].d(T)[sp].[moe](A)[sp].[moe](C)[sp].[moe](A)}$$$$V2.0,24% and 8%,–
RNA1{[moe](C)[sp].[moe](C)[sp].[moe](A)[sp].d(A)[sp].d(T)[sp].d(T)[sp].d(T)[sp].d(A)[sp].d(T)[sp].d(G)[sp].d(C)[sp].d(C)[sp].[moe](T)[sp].[moe](A)[sp].[moe](C)[sp].[moe](A)[sp].[moe](G)}$$$$V2.0,53% and 32%,–
RNA1{[moe](C)[sp].[moe](C)[sp].[moe](A)[sp].d(C)[sp].d(T)[sp].d(G)[sp].d(A)[sp].d(A)[sp].d(C)[sp].d(A)[sp].d(A)[sp].d(A)[sp].[moe](T)[sp].[moe](G)[sp].[moe](G)[sp].[moe](C)}$$$$V2.0,69%,–
RNA1{[moe](C)[sp].[moe](C)[sp].[moe](G)[sp].d(C)[sp].d(A)[sp].d(G)[sp].d(T)[sp].d(A)[sp].d(T)[sp].d(G)[sp].d(G)[sp].d(A)[sp].[moe](T)[sp].[moe](C)[sp].[moe](G)[sp].[moe](G)[sp].[moe](C)}$$$$V2.0,86% and 73%,–
RNA1{[moe](C)[sp].[moe](C)[sp].d(G)[sp].d(C)[sp].d(A)[sp].d(G)[sp].d(T)[sp].d(A)[sp].d(T)[sp].d(G)[sp].d(G)[sp].[moe](A)[sp].[moe](T)[sp].[moe](C)[sp].[moe](G)[sp].[moe](G)}$$$$V2.0,63% and 52%,–
RNA1{[moe](C)[sp].[moe](G)[sp].[moe](A)[sp].[moe](A)[sp].[moe](C)[sp].d(C)[sp].d(A)[sp].d(C)[sp].d(T)[sp].d(G)[sp].d(A)[sp].d(A)[sp].d(C)[sp].d(A)[sp].[moe](A)[sp].[moe](A)[sp].[moe](T)}$$$$V2.0,34% and 32%,–
RNA1{[moe](C)[sp].[moe](G)[sp].[moe](A)[sp].[moe](A)[sp].d(C)[sp].d(C)[sp].d(A)[sp].d(C)[sp].d(T)[sp].d(G)[sp].d(A)[sp].d(A)[sp].d(C)[sp].[moe](A)[sp].[moe](A)[sp].[moe](A)}$$$$V2.0,44% and 32%,–
RNA1{[moe](C)[sp].[moe](G)[sp].[moe](C)[sp].[moe](A)[sp].d(G)[sp].d(T)[sp].d(A)[sp].d(T)[sp].d(G)[sp].d(G)[sp].d(A)[sp].d(T)[sp].d(C)[sp].[moe](G)[sp].[moe](G)[sp].[moe](C)[sp].[moe](A)}$$$$V2.0,81% and 67%,–
RNA1{[moe](C)[sp].[moe](G)[sp].[moe](C)[sp].[moe](A)[sp].d(G)[sp].d(T)[sp].d(A)[sp].d(T)[sp].d(G)[sp].d(G)[sp].d(A)[sp].d(T)[sp].d(C)[sp].[moe](G)[sp].[moe](G)[sp].[moe](C)}$$$$V2.0,80% and 68%,–
